For experiment [1], the system named is T24 cells. As to the kind of experiment: Antiproliferative activity, sulforhodamine B assay, T24 bladder cancer cells. The experiment is classed as cell-based, human. To be noted: SRB, mean (±SEM). As to the method:
(§1) In vitro antiproliferative activity of the compounds was determined in cells derived from bladder cancer (T24) and prostate cancer (LNCaP). The cells were incubated in the presence of the compounds for 48 h. The antiproliferative activity was determined using the sulforhodamine B assay. The results were expressed as GI50, which is the drug concentration resulting in a 50% reduction of cellular net growth when compared with the values of untreated control cells. The standard anticancer drug cisplatin was used as a positive control, and furoxan 3 and 11a were also included as ⋅NO donor reference compounds. The results are summarized in Table 2 for the Ugi product 7a, Ugi-Fx (8a) and 8b–g Ugi-furoxan derivatives, and GBB product 10 and 12a–e GBB-furoxan derivatives.
(§2) The T24 cells were grown in McCoy’s 5A (Biological Industries) supplemented with 10% FBS (Capricorn Scientific). The cells were passaged twice per week, and the culture medium was changed with the same frequency. The LNCaP cells were maintained in RPMI media (Biological Industries) supplemented with 10% FBS (Capricorn Scientific) and 10% of its own conditioned medium (complete media). The cells were passaged once per week, and the medium was changed with the same frequency. The HaCaT cells (immortalized human keratinocytes) were cultured in Dulbecco’s modified Eagle medium (Biological Industries) supplemented with 10% FBS (Capricorn Scientific). The cells were passaged twice per week, and the medium was changed with the same frequency. The cell cultures were maintained under a humidified 5% CO2 atmosphere at 37 °C.
(§3) For viability assays, cells were treated with a 0.25% Trypsin–0.05% EDTA solution and plated in 96-well plates in complete medium the day before the experiment. The cells were seeded in a 96-well plate at densities of 8 × 10^3 cells per well for T24 cells, 12.5 × 10^3 cells per well for LNCaP cells, and 10 × 10^3 cells per well for HaCaT cells. The cultures were allowed to attach for 24 h in a humidified 5% CO2 atmosphere at 37 °C. Then, the cells were treated with increasing concentrations of the compounds (0.4–100.0 µM) prepared in complete medium using stock solutions in DMSO and were kept for 48 h in a CO2 incubator. Wells with only media or 0.5% DMSO were added as controls. The antiproliferative activity of the compounds was assayed using the SRB method in at least three independent experiments.

The test system of the next experiment is LNCaP cells. In words: Antiproliferative activity, sulforhodamine B assay, LNCaP prostate cancer cells. The experiment is classed as cell-based, human. To be noted: Homo sapiens, 48 h, SRB, mean (±SEM). As to the method: as §1, §2, §3
Experiment [2] deals with HaCaT cells. In words: Cytotoxicity in non-cancer keratinocytes, sulforhodamine B assay. The experiment is classed as cell-based. To be noted: HaCaT human keratinocytes, 0.4–100 µM, SRB; mean (±SEM). As to the method: As a first approximation of the safety profile of the synthesized compounds and to determine the cytotoxic selectivity against cancer cells, the antiproliferative activity in non-cancer cells was studied. This evaluation was carried out in human keratinocyte HaCaT cells with 0.4–100 µM of the test compounds using the sulforhodamine B assay. The selectivity index (SI) was calculated for these compounds by dividing the GI50 for HaCaT by the GI50 for each cancer cell line. […] The derivatives Ugi-Fx (8a) and 12e stand out, with selectivity indices of 14.5 and 10.8, respectively. […] Concerning the LNCaP prostate cancer cell line, as for the reference drug, no selectivity was observed. […] Therefore, this new GBB-furoxan derivative can be a starting point in the design of new structures with improved selectivity.
as §2, §3

The subject of experiment [3] is T24 cells. As to the kind of experiment: Antiproliferative activity with hemoglobin (NO scavenger), SRB assay. It counts as cell-based, human. To be noted: Hb 0 or 50 µM 1 h pretreatment, compounds 10 µM, 48 h, Figure 4. As to the method:
In this context, we next decided to study the effect of ·NO on their antiproliferative activity against T24 cells after incubation with an ·NO scavenger (Hb, hemoglobin). For this purpose, T24 cells were pretreated for 1 h with 0 or 50 µM of Hb and then the ·NO-donor compounds were added at 10 µM for 48 h. […] However, while for some compounds, such as 8d, ·NO release seems to be crucial for the antiproliferative activity, for others, such as Ugi-Fx (8a), other mechanisms would account for its anticancer effect. It is well-known that the action of 3-phenylsulfonylfuroxan derivatives is connected to ⋅NO release due to their interaction with free intracellular thiols or thiol groups of proteins. However, this action may also involve a covalent bond to thiol biomolecules with the concomitant displacement of the phenylsulfonyl group, leading to a cytotoxic adduct accumulation in the cell milieu. […] Further studies to elucidate the possible mechanisms of action involved will be performed.
To investigate the contribution of ⋅NO to the antiproliferative activity of the studied compounds, we tested their effect on T24 bladder cancer cell growth in the absence and presence of Hb. Cells were seeded into a 96-well plate at 8 × 10^3 cells per well and were allowed to attach for 24 h. […] Then, the antiproliferative activity was assessed by the SRB assay in at least three independent experiments. […]

The test system of the next experiment is A549 (Lung). Also on record: method as in PMID 31356736. To be noted: cited from earlier work.
In a further experiment the test system is HBL-100 (Breast). Also on record: method as in PMID 31356736. To be noted: cited from earlier work.
Another experiment deals with HeLa (Cervix). Set-up: method as in PMID 31356736. To be noted: cited from earlier work.
Another experiment relates to SW1573 (Lung). Also on record: method as in PMID 31356736. To be noted: cited from earlier work.
The next experiment relates to T-47D (Breast). Also on record: method as in PMID 31356736. To be noted: cited from earlier work.
A further experiment has as its system WiDr (Colon). Also on record: method as in PMID 31356736. To be noted: cited from earlier work.
Experiment [4] deals with HaCaT cells. Also on record: method as in PMID 30489292. To be noted: HaCaT human keratinocytes; cited from earlier work.

Read-outs that look alike come from different tables or passages of the source.

These results are taken from PMC8955377, “Greener Synthesis of Antiproliferative Furoxans via Multicomponent Reactions” (Molecules, 2022).

As to `Cc1ccc(N(C(=O)c2cccc(Oc3no[n+]([O-])c3S(=O)(=O)c3ccccc3)c2)C(C(=O)NC(C)(C)C)c2ccccc2)cc1` (stereo not drawn) [Ugi-Fx (8a), N-[1-(tert-butylaminocarbonyl)-1-phenylmethyl]-N-(4-methylphenyl)-3-[3-(phenylsulfonyl)-[1,2,5]oxadiazol-4-yl N2-oxide]oxyphenylcarboxamide], the “GI50 T24” value in the experiment on T24 cells [1] (48 h) was “sub-micromolar range”. Moreover, the GI50 in the experiment on T24 cells [1] (Homo sapiens, T-24, 48 h) was 730 nM; in the experiment on LNCaP cells it was 20200 nM; in the experiment with HaCaT cells [2], 10600 nM; in the experiment on A549 (Lung), 2300 nM; with HBL-100 (Breast) it was 230 nM; in the experiment on HeLa (Cervix), 1800 nM. Also, the figures for the GI50 in the experiment with SW1573 (Lung), in the experiment on T-47D (Breast) and with WiDr (Colon) were 21 nM, 1900 nM and 3000 nM, respectively. For the same molecule, in the experiment on T24 cells [3], the “Effect of hemoglobin on antiproliferative effect (cell growth inhibition)” value is listed as “high antiproliferative activity even in the presence of a ⋅NO scavenger”.
In the case of `O=S(=O)(c1ccccc1)c1no[n+]([O-])c1S(=O)(=O)c1ccccc1` [compound 2, 3,4-bis(phenylsulfonyl)furoxan], the GI50 with HaCaT cells [4] was 1470 nM.
